*1 amine or outer side, *2 acyl side, *3 side chain or, on linkers, in order; H or OH if unused. Where a SMILES comes first, the peptide text is derived from it. [ ]: non-standard residue; d: D form. X2 = O=C([C@H](CCNCc1ccccn1)N[*:1])[*:2]; Pro(3S-OH) = O=C(O)[C@H]1NCC[C@@H]1O; Cha = N[C@@H](CC1CCCCC1)C(=O)O; Chg = N[C@H](C(=O)O)C1CCCCC1; Tle = CC(C)(C)[C@H](N)C(=O)O; dDab = NCC[C@@H](N)C(=O)O; hSer = N[C@@H](CCO)C(=O)O; Orn = NCCC[C@H](N)C(=O)O; Dab = NCC[C@H](N)C(=O)O; Nva = CCC[C@H](N)C(=O)O; Dap = NC[C@H](N)C(=O)O
Each compound was assayed on human red blood cells (hRBC) (assay: Hemolysis of human red blood cells). Details: red cells of human, 1 h, 100.
Format: cell-based
Outline: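 Washed fresh human erythrocytes (20% v/v, about 0.9×10^9 cells/ml final) incubated with peptide at 100 μg/ml for 1 h at 37° C with shaking. Supernatant OD540 read; hemolysis expressed relative to 2.5% Triton X-100 (100%) and PBS with 0.001% acetic acid (0%).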

Point of comparison: `CC(C)C[C@@H]1NC(=O)[C@@H]2CCCN2C(=O)[C@H]2CCCN2C(=O)[C@H](CO)NC(=O)[C@H](C)NC(=O)[C@H](C(C)(C)C)NC(=O)[C@H](CN)NC(=O)[C@H](Cc2c[nH]c3ccccc23)NC(=O)[C@H](CCN)NC(=O)[C@@H](CCN)NC(=O)[C@H](CCCN)NC(=O)[C@H](CCN)NC(=O)[C@H](Cc2ccc(O)cc2)NC(=O)[C@H](CO)NC1=O` [compound 101] (cyclo(LSY[Dab][Orn][dDab][Dab]W[Dap][Tle]AS[dP]P)), “Hemolysis at 100 μg/ml” value 1%. Against it:
- C[C@@H]1NC(=O)[C@H](Cc2c[nH]c3ccccc23)NC(=O)[C@@H]2CCCN2C(=O)[C@H]2CCCN2C(=O)[C@H](CO)NC(=O)[C@H](C)NC(=O)[C@H](C(C)(C)C)NC(=O)[C@H](CCN)NC(=O)[C@H](Cc2c[nH]c3ccccc23)NC(=O)[C@H](CCN)NC(=O)[C@@H](CCN)NC(=O)[C@H](CCCN)NC(=O)[C@H](CCN)NC(=O)[C@H](Cc2ccc(O)cc2)NC1=O [compound 4] (cyclo(WAY[Dab][Orn][dDab][Dab]W[Dab][Tle]AS[dP]P)) — the same, 1%
- CC(C)C[C@@H]1NC(=O)[C@@H]2CCCN2C(=O)[C@H]2CCCN2C(=O)[C@H](CO)NC(=O)[C@H]([C@@H](C)O)NC(=O)[C@H](C(C)(C)C)NC(=O)[C@H](CCN)NC(=O)[C@H](Cc2c[nH]c3ccccc23)NC(=O)[C@H](CCN)NC(=O)[C@@H](CCN)NC(=O)[C@H](CCCN)NC(=O)[C@H](CCN)NC(=O)[C@H](Cc2ccc(O)cc2)NC(=O)[C@H](CCN)NC1=O [compound 148] (cyclo(L[Dab]Y[Dab][Orn][dDab][Dab]W[Dab][Tle]TS[dP]P)) — the same, 1%
- CC(C)C[C@@H]1NC(=O)[C@@H]2CCCN2C(=O)[C@H]2CCCN2C(=O)[C@H](CN)NC(=O)[C@H](C)NC(=O)[C@H](C(C)(C)C)NC(=O)[C@H](CCO)NC(=O)[C@H](Cc2c[nH]c3ccccc23)NC(=O)[C@H](CCN)NC(=O)[C@@H](CCN)NC(=O)[C@H](CCCN)NC(=O)[C@H](CCN)NC(=O)[C@H](Cc2ccc(O)cc2)NC(=O)[C@H](CO)NC1=O [compound 42] (cyclo(LSY[Dab][Orn][dDab][Dab]W[hSer][Tle]A[Dap][dP]P)) — the same, 1%
- CCC[C@@H]1NC(=O)[C@H](CCN)NC(=O)[C@H](Cc2c[nH]c3ccccc23)NC(=O)[C@H](CCN)NC(=O)[C@@H](CCN)NC(=O)[C@H](CCCN)NC(=O)[C@H](CCN)NC(=O)[C@H](Cc2ccc(O)cc2)NC(=O)[C@H](CO)NC(=O)[C@H](CC(C)C)NC(=O)[C@@H]2CCCN2C(=O)[C@H]2CCCN2C(=O)[C@H](CO)NC(=O)[C@H](C)NC1=O [compound 30] (cyclo(LSY[Dab][Orn][dDab][Dab]W[Dab][Nva]AS[dP]P)) — the same, 1%
- CC(C)C[C@@H]1NC(=O)[C@@H]2CCCN2C(=O)[C@H]2CCCN2C(=O)[C@H](CO)NC(=O)[C@H](C)NC(=O)[C@H](Cc2c[nH]c3ccccc23)NC(=O)[C@H](CCN)NC(=O)[C@H](Cc2c[nH]c3ccccc23)NC(=O)[C@H](CCN)NC(=O)[C@@H](CCN)NC(=O)[C@H](CCCN)NC(=O)[C@H](CCN)NC(=O)[C@H](Cc2c[nH]c3ccccc23)NC(=O)[C@H](CO)NC1=O [compound 109] (cyclo(LSW[Dab][Orn][dDab][Dab]W[Dab]WAS[dP]P)) — higher, 2%
- CC(C)C[C@@H]1NC(=O)[C@@H]2CCCN2C(=O)[C@H]2CCCN2C(=O)[C@H](CO)NC(=O)[C@H](C)NC(=O)[C@H](C(C)(C)C)NC(=O)[C@H](CCN)NC(=O)[C@H](Cc2c[nH]c3ccccc23)NC(=O)[C@H](CCN)NC(=O)[C@@H](CCN)NC(=O)[C@H](CCCCN)NC(=O)[C@H](CCN)NC(=O)[C@H](Cc2ccc(O)cc2)NC(=O)[C@H](CO)NC1=O [compound 25] (cyclo(LSY[Dab]K[dDab][Dab]W[Dab][Tle]AS[dP]P)) — the same, 1%
- CC(C)C[C@@H]1NC(=O)[C@@H]2CCCN2C(=O)[C@H]2CCCN2C(=O)[C@H](CO)NC(=O)[C@H](C)NC(=O)[C@H](C(C)(C)C)NC(=O)[C@H](CCCNC(=N)N)NC(=O)[C@H](Cc2c[nH]c3ccccc23)NC(=O)[C@H](CCN)NC(=O)[C@@H](CCN)NC(=O)[C@H](CCCN)NC(=O)[C@H](CCN)NC(=O)[C@H](Cc2ccc(O)cc2)NC(=O)[C@H](CO)NC1=O [compound 97] (cyclo(LSY[Dab][Orn][dDab][Dab]WR[Tle]AS[dP]P)) — the same, 1%
- CCC[C@@H]1NC(=O)[C@@H]2CCCN2C(=O)[C@H]2CCCN2C(=O)[C@H](CO)NC(=O)[C@H](C)NC(=O)[C@H](C2CCCCC2)NC(=O)[C@H](CCN)NC(=O)[C@H](Cc2c[nH]c3ccccc23)NC(=O)[C@H](CCN)NC(=O)[C@@H](CCN)NC(=O)[C@H](CCCN)NC(=O)[C@H](CCN)NC(=O)[C@H](C(C)(C)C)NC(=O)[C@H](CO)NC1=O [compound 138] (cyclo([Nva]S[Tle][Dab][Orn][dDab][Dab]W[Dab][Chg]AS[dP]P)) — the same, 1%
- C[C@@H]1NC(=O)[C@H](C(C)(C)C)NC(=O)[C@H](CCN)NC(=O)[C@H](Cc2c[nH]c3ccccc23)NC(=O)[C@H](CCN)NC(=O)[C@H](CCN)NC(=O)[C@H](CCCN)NC(=O)[C@H](CCN)NC(=O)[C@H](CC2CCCCC2)NC(=O)[C@H](CO)NC(=O)[C@H](Cc2c[nH]c3ccccc23)NC(=O)[C@@H]2CCCN2C(=O)[C@H]2CCCN2C(=O)[C@H](CO)NC1=O [Ex. 1] (cyclo(WS[Cha][Dab][Orn][Dab][Dab]W[Dab][Tle]AS[dP]P)) — the same, 1%
- CC(C)C[C@@H]1NC(=O)[C@@H]2CCCN2C(=O)[C@H]2CCCN2C(=O)[C@H](CO)NC(=O)[C@H](C)NC(=O)[C@H](Cc2ccc(O)cc2)NC(=O)[C@H](CCN)NC(=O)[C@H](Cc2c[nH]c3ccccc23)NC(=O)[C@H](CCN)NC(=O)[C@@H](CCN)NC(=O)[C@H](CCCN)NC(=O)[C@H](CCN)NC(=O)[C@H](Cc2ccc(O)cc2)NC(=O)[C@H](CO)NC1=O [compound 31] (cyclo(LSY[Dab][Orn][dDab][Dab]W[Dab]YAS[dP]P)) — the same, 1%
- CC[C@H](C)[C@@H]1NC(=O)[C@@H]2CCCN2C(=O)[C@H]2CCCN2C(=O)[C@H](CO)NC(=O)[C@H](CO)NC(=O)[C@H](C(C)(C)C)NC(=O)[C@H](CCN)NC(=O)[C@H](Cc2c[nH]c3ccccc23)NC(=O)[C@H](CCN)NC(=O)[C@@H](CCN)NC(=O)[C@H](CCCN)NC(=O)[C@H](CCN)NC(=O)[C@H](CC2CCCCC2)NC(=O)[C@H](C)NC1=O [compound 151] (cyclo(IA[Cha][Dab][Orn][dDab][Dab]W[Dab][Tle]SS[dP]P)) — higher, 7%
- C[C@@H]1NC(=O)[C@H](C(C)(C)C)NC(=O)[C@H](CCN)NC(=O)[C@H](Cc2c[nH]c3ccccc23)NC(=O)[C@H](CCN)NC(=O)[C@@H](CCN)NC(=O)[C@H](CCCN)NC(=O)[C@H](CCN)NC(=O)[C@H](CC2CCCCC2)NC(=O)[C@H](CNC(=O)[C@@H](N)[C@@H](C)O)NC(=O)[C@H](Cc2c[nH]c3ccccc23)NC(=O)[C@@H]2CCCN2C(=O)[C@H]2CCCN2C(=O)[C@H](CO)NC1=O [compound 14] (cyclo(W[Dap](Thr)[Cha][Dab][Orn][dDab][Dab]W[Dab][Tle]AS[dP]P)) — lower, 0%
- CC(C)C[C@@H]1NC(=O)[C@@H]2CCCN2C(=O)[C@H]2CCCN2C(=O)[C@H]([C@@H](C)O)NC(=O)[C@H](CO)NC(=O)[C@H](C(C)(C)C)NC(=O)[C@H](CCN)NC(=O)[C@H](Cc2c[nH]c3ccccc23)NC(=O)[C@H](CCN)NC(=O)[C@@H](CCN)NC(=O)[C@H](CCN)NC(=O)[C@H](CCN)NC(=O)[C@H](Cc2ccc(O)cc2)NC(=O)[C@H](CN)NC1=O [compound 149] (cyclo(L[Dap]Y[Dab][Dab][dDab][Dab]W[Dab][Tle]ST[dP]P)) — higher, 4%
- C[C@@H]1NC(=O)[C@H](C(C)(C)C)NC(=O)[C@H](CCN)NC(=O)[C@H](Cc2c[nH]c3ccccc23)NC(=O)[C@H](CCN)NC(=O)[C@@H](CCN)NC(=O)[C@H](CCCN)NC(=O)[C@H](CCN)NC(=O)[C@H](CC2CCCCC2)NC(=O)[C@H](CCNCc2ccccn2)NC(=O)[C@H](Cc2c[nH]c3ccccc23)NC(=O)[C@@H]2CCCN2C(=O)[C@H]2CCCN2C(=O)[C@H](CO)NC1=O [compound 12] (cyclo(W[X2][Cha][Dab][Orn][dDab][Dab]W[Dab][Tle]AS[dP]P)) — lower, 0%
- CC(C)C[C@@H]1NC(=O)[C@@H]2[C@@H](O)CCN2C(=O)[C@H]2CCCN2C(=O)[C@H](CO)NC(=O)[C@H](C)NC(=O)[C@H](C(C)(C)C)NC(=O)[C@H](CCN)NC(=O)[C@H](Cc2c[nH]c3ccccc23)NC(=O)[C@H](CCN)NC(=O)[C@@H](CCN)NC(=O)[C@H](CCCN)NC(=O)[C@H](CCN)NC(=O)[C@H](Cc2ccc(O)cc2)NC(=O)[C@H](CO)NC1=O [compound 57] (cyclo(AS[dP][Pro(3S-OH)]LSY[Dab][Orn][dDab][Dab]W[Dab][Tle])) — the same, 1%
- C[C@@H]1NC(=O)[C@H](C2CCCCC2)NC(=O)[C@H](CCN)NC(=O)[C@H](Cc2c[nH]c3ccccc23)NC(=O)[C@H](CCN)NC(=O)[C@@H](CCN)NC(=O)[C@H](CCCN)NC(=O)[C@H](CCN)NC(=O)[C@H](C(C)(C)C)NC(=O)[C@H](CO)NC(=O)[C@H](Cc2ccc(O)cc2)NC(=O)[C@@H]2CCCN2C(=O)[C@H]2CCCN2C(=O)[C@H](CO)NC1=O [compound 69] (cyclo(YS[Tle][Dab][Orn][dDab][Dab]W[Dab][Chg]AS[dP]P)) — higher, 7%
- CC(C)C[C@@H]1NC(=O)[C@@H]2CCCN2C(=O)[C@H]2CCCN2C(=O)[C@H](CO)NC(=O)[C@H](C)NC(=O)[C@H](C(C)(C)C)NC(=O)[C@H](CCCCN)NC(=O)[C@H](Cc2c[nH]c3ccccc23)NC(=O)[C@H](CCN)NC(=O)[C@@H](CCN)NC(=O)[C@H](CCCN)NC(=O)[C@H](CCN)NC(=O)[C@H](Cc2ccc(O)cc2)NC(=O)[C@H](CO)NC1=O [compound 100] (cyclo(LSY[Dab][Orn][dDab][Dab]WK[Tle]AS[dP]P)) — the same, 1%
- CCC[C@@H]1NC(=O)[C@@H]2CCCN2C(=O)[C@H]2CCCN2C(=O)[C@H](CO)NC(=O)[C@H](C)NC(=O)[C@H](C2CCCCC2)NC(=O)[C@H](CCN)NC(=O)[C@H](Cc2c[nH]c3ccccc23)NC(=O)[C@H](CCN)NC(=O)[C@@H](CCN)NC(=O)[C@H](CCCN)NC(=O)[C@H](CCN)NC(=O)[C@H](CC2CCCCC2)NC(=O)[C@H](C)NC1=O [compound 150] (cyclo([Nva]A[Cha][Dab][Orn][dDab][Dab]W[Dab][Chg]AS[dP]P)) — higher, 4%

Source: patent publication US9938322B2, “β-hairpin peptidomimetics” (priority 2013, dated 2018)
